# Data as given in paper PMC9231250, “Cardio- and Neurotoxicity of Selected Anti-COVID-19 Drugs” (Pharmaceuticals, 2022).
# Structures can show the parent of a compound that is named as a salt. Where two headings read alike, the source gives them in different places.
# Assays:
# hiPSC-CMs [1] = experiment: Cardiotoxicity screen, CellTiter-Glo cell viability in hiPSC-derived cardiomyocytes; conditions: 24 h; for cardiotoxicity (in words): hiPSC-CMs, CellTiter-Glo; for IC50: Homo sapiens, Cardiomyocyte, read-out: cardiotoxicity IC50
# [2] = tested on: Huh7.5 (human epithelial-like) cells; conditions: Huh7.5 cells; cited from earlier work
# [3] = tested on: Vero (African monkey epithelial) cells; conditions: cited from earlier work
# hiPSC-NEURs [4] = experiment: Neurotoxicity screen, CellTiter-Glo cell viability in hiPSC-derived neurons; conditions: for IC50: Homo sapiens, Neuron
# hiPSC-NEURs [5] = tested on: hiPSC-NEURs
# COVID-19 patients = conditions: cited from earlier work
# hiPSC-CMs [6] = tested on: hiPSC-CMs
# [7] = following the clinical dosing regimen; cited from earlier work
# [8] = 24 h, read-out: neurotoxicity IC50
# [9] = hiPSC-NEURs, 24 h, CellTiter-Glo
SMILES,cardiotoxicity (in words) (hiPSC-CMs [1]),cell toxicity [2],cell toxicity [3],IC50 (hiPSC-NEURs [4]; [8]) [µM],neurotoxicity (in words) (hiPSC-NEURs [4]; [9]),"neurotoxicity (in words) (hiPSC-NEURs [4]; hiPSC-NEURs, 24 h, CellTiter-Glo, listed as Hydroxychloroquine)","further neurotoxicity on addition of azithromycin (hiPSC-NEURs [4]; hiPSC-NEURs, combined with 5 µM or 10 µM azithromycin, 24 h, CellTiter-Glo)",further neurotoxicity on addition of azithromycin (hiPSC-NEURs [5]),neurotoxicity (in words) (hiPSC-NEURs [5]),"in-hospital mortality (COVID-19 patients; COVID-19 patients, 200 mg three times per day)",IC50 (hiPSC-CMs [1]) [µM],cardiotoxicity (in words) (hiPSC-CMs [6]),adverse effects on the cardiovascular system (COVID-19 patients),"plasma concentration, lower end [7] [µM]","plasma concentration, upper end [7] [µM]","IC50 (hiPSC-NEURs [4]; read-out: neurotoxicity, individual variability between individuals (lowest)) [µM]"
CCN(CCO)CCCC(C)Nc1ccnc2cc(Cl)ccc12 (stereo not shown) [hydroxychloroquine],not cardiomyocytes,observe toxicity,observe toxicity,52,toxicity in neurons,Neurotoxic,did not induce further neurotoxicity,–,–,–,–,–,–,–,–,–
CCN(CC)CCCC(C)Nc1ccnc2cc(Cl)ccc12 (stereo not shown) [chloroquine],–,–,–,71,–,–,–,did not induce further neurotoxicity,Neurotoxic,–,–,–,–,–,–,–
"CCOC(=O)c1c(CSc2ccccc2)n(C)c2cc(Br)c(O)c(CN(C)C)c12 [arbidol, arbidol hydrochloride]",–,–,–,42,–,–,–,–,Neurotoxic,increased risk of in-hospital mortality,61,Cardiotoxic,–,–,–,–
CCC(CC)COC(=O)[C@H](C)N[P@](=O)(OC[C@H]1O[C@@](C#N)(c2ccc3c(N)ncnn23)[C@H](O)[C@@H]1O)Oc1ccccc1 [remdesivir],Cardiotoxic,did not observe cell toxicity,did not observe cell toxicity,41,Neurotoxic,–,–,–,–,–,51,–,"hypotension, atrial fibrillation rhythm, and sinus bradycardia",≥ 16.7,≤ 1700,3
